Calls of active or inactive are those of the source. The calls are words filed in the database; no cut-off is given here. Where a SMILES comes first, the peptide text is derived from it. [ ]: non-standard residue; d: D form. βAla = NCCC(=O)O

One assay has as its system Monoclonal antibody (mAb) 3E7. Put plainly: Affinity towards anti-beta-endorphin MAb(Clone 3-E7) using [3H][Leu5]-enkephalin as labeled ligand.
A word on the IC50: it is the concentration that gives 50% inhibition. Lower therefore signals greater potency in that assay. For `C[C@@H](O)[C@H](NC(=O)[C@H](Cc1ccccc1)NC(=O)CNC(=O)CNC(=O)[C@@H](N)Cc1ccc(O)cc1)C(=O)NCCC(N)=O` (H-YGGFT[βAla]-NH2), the 50% inhibitory concentration (IC50) is 43.3 nM.
Still for that read-out and setting: the figure for `CC(C)C[C@H](NC(=O)CNC(=O)CNC(=O)[C@@H](N)Cc1ccc(O)cc1)C(=O)N[C@@H](CO)C(N)=O` (H-YGGLS-NH2) is 991 nM; for `CC(C)C[C@H](NC(=O)CNC(=O)CNC(=O)[C@@H](N)Cc1ccc(O)cc1)C(=O)N[C@@H](CO)C(=O)NCCC(N)=O` (H-YGGLS[βAla]-NH2) it is 1150 nM; for `CSCC[C@H](NC(=O)CNC(=O)CNC(=O)[C@@H](N)Cc1ccc(O)cc1)C(=O)N[C@H](C(=O)NCCC(=O)O)C(C)C` (H-YGGMV[βAla]-OH) it is 5140 nM.
Same read-out and setting: in the case of `C[C@@H](O)[C@H](NC(=O)[C@H](Cc1ccccc1)NC(=O)CNC(=O)CNC(=O)[C@@H](N)Cc1ccc(O)cc1)C(N)=O` (H-YGGFT-NH2) it was 65.2 nM.
Same read-out and setting: in the case of `NC(=O)CC[C@H](NC(=O)[C@H](Cc1ccccc1)NC(=O)CNC(=O)CNC(=O)[C@@H](N)Cc1ccccc1)C(=O)O` (H-FGGFQ-OH) it was 15 nM.
Regarding `CC(C)C[C@H](NC(=O)[C@H](C)NC(=O)CNC(=O)[C@@H](N)Cc1ccc(O)cc1)C(=O)N[C@@H](CCC(N)=O)C(N)=O` (H-YGALQ-NH2), the IC50 is 2910 nM.
For the compound `CC(C)C[C@H](NC(=O)[C@H](C)NC(=O)CNC(=O)[C@@H](N)Cc1ccc(O)cc1)C(=O)N[C@@H](CCC(N)=O)C(=O)NCCC(N)=O` (H-YGALQ[βAla]-NH2), the IC50 is 2870 nM.
Still for that read-out and setting: in the case of `CC(C)C[C@H](NC(=O)[C@H](Cc1ccccc1)NC(=O)CNC(=O)CNC(=O)[C@@H](N)Cc1ccc(O)cc1)C(=O)N[C@@H](C)C(=O)O` (H-YGGFLA-OH) it was 17.1 nM; in that of `C[C@H](NC(=O)[C@H](Cc1ccccc1)NC(=O)CNC(=O)CNC(=O)[C@@H](N)Cc1ccc(O)cc1)C(=O)NCCC(N)=O` (H-YGGFA[βAla]-NH2), 93.6 nM.
`CC(C)C[C@H](NC(=O)[C@H](C)NC(=O)CNC(=O)[C@@H](N)Cc1ccc(O)cc1)C(=O)N[C@@H](CCC(N)=O)C(=O)NCCC(=O)O` (H-YGALQ[βAla]-OH) registered a half-inhibitory concentration (IC50) of 1470 nM.
Same read-out and setting: in the case of `NC(=O)CCNC(=O)[C@H](CCC(N)=O)NC(=O)[C@H](Cc1ccccc1)NC(=O)CNC(=O)CNC(=O)[C@@H](N)Cc1ccccc1` (H-FGGFQ[βAla]-NH2) it was 45.4 nM; in that of `CC(C)C[C@H](NC(=O)CNC(=O)CNC(=O)[C@@H](N)Cc1ccc(O)cc1)C(=O)N[C@@H](CO)C(=O)NCCC(=O)O` (H-YGGLS[βAla]-OH), 916 nM.
Regarding `CSCC[C@H](NC(=O)CNC(=O)CNC(=O)[C@@H](N)Cc1ccc(O)cc1)C(=O)N[C@H](C(N)=O)C(C)C` (H-YGGMV-NH2), the half-maximal inhibitory concentration (IC50) was determined as 14000 nM.

The test system of another assay is Monoclonal antibody (mAb) 3E7. Put plainly: Affinity towards anti-beta-endorphin MAb(Clone 3-E7) using [3H][Leu5]-enkephalin as labeled ligand at 10 uM concentration; not active.
Turning to `N[C@@H](Cc1ccc(O)cc1)C(=O)NCC(=O)N[C@@H](Cc1ccc(O)cc1)C(=O)N[C@@H](Cc1ccccc1)C(=O)N[C@@H](Cc1ccccc1)C(=O)O` (H-YGYFF-OH), the result was inactive.
With `NCCCC[C@H](NC(=O)[C@@H](N)Cc1ccc(O)cc1)C(=O)NCC(=O)NCC(=O)N[C@@H](Cc1ccccc1)C(=O)O` (H-YKGGF-OH), the outcome was inactive.
Take `CC(C)[C@H](NC(=O)CNC(=O)[C@@H](N)Cc1ccc(O)cc1)C(=O)N[C@@H](Cc1ccccc1)C(=O)N[C@@H](CCC(=O)O)C(=O)O` (H-YGVFE-OH): the result was inactive.
Same read-out and setting: in the case of `C[C@H](NC(=O)CNC(=O)[C@@H](N)Cc1ccc(O)cc1)C(=O)N[C@@H](Cc1ccccc1)C(=O)N[C@@H](CCC(N)=O)C(=O)O` (H-YGAFQ-OH) it was “inactive”; in that of `C[C@H](NC(=O)CNC(=O)[C@@H](N)Cc1ccc(O)cc1)C(=O)N[C@@H](Cc1ccccc1)C(=O)N[C@H](C(=O)O)[C@@H](C)O` (H-YGAFT-OH), “inactive”.
On the same count and under the same terms, in the case of `CSCC[C@H](NC(=O)CNC(=O)[C@@H](N)Cc1ccc(O)cc1)C(=O)NCC(=O)N[C@@H](Cc1ccccc1)C(=O)O` (H-YGMGF-OH) it was “inactive”; in that of `NC(=O)C[C@H](NC(=O)CNC(=O)[C@@H](N)Cc1ccc(O)cc1)C(=O)N[C@@H](Cc1ccccc1)C(=O)N[C@@H](Cc1ccccc1)C(=O)O` (H-YGNFF-OH), “inactive”.
On the same count and under the same terms, in the case of `CC(C)C[C@H](N)C(=O)N[C@@H](Cc1ccc(O)cc1)C(=O)NCC(=O)NCC(=O)N[C@@H](Cc1ccccc1)C(=O)O` (H-LYGGF-OH) it was “inactive”; in that of `CC[C@H](C)[C@H](NC(=O)[C@H](Cc1ccccc1)NC(=O)[C@H](C)NC(=O)CNC(=O)[C@@H](N)Cc1ccc(O)cc1)C(=O)O` (H-YGAFI-OH), “inactive”.
With `C[C@H](NC(=O)[C@H](CCC(=O)O)NC(=O)CNC(=O)[C@@H](N)Cc1ccc(O)cc1)C(=O)N[C@@H](Cc1ccccc1)C(=O)O` (H-YGEAF-OH), the result was inactive.
Consider `NC(=O)CC[C@H](NC(=O)[C@H](Cc1ccccc1)NC(=O)CNC(=O)CNC(=O)[C@@H](N)Cc1ccc(O)cc1)C(=O)O` (H-YGGFQ-OH), for which the result was inactive.
On the same count and under the same terms, in the case of `CC(C)C[C@H](NC(=O)[C@H](CC(C)C)NC(=O)CNC(=O)[C@H](Cc1ccc(O)cc1)NC(=O)[C@@H](N)CCCN=C(N)N)C(=O)O` (H-RYGLL-OH) it was “inactive”; in that of `N[C@@H](Cc1ccc(O)cc1)C(=O)NCC(=O)N1CCC[C@H]1C(=O)NCC(=O)N[C@@H](Cc1ccccc1)C(=O)O` (H-YGPGF-OH), “inactive”.
The same measure, in the same setting: in the case of `CC(C)C[C@H](NC(=O)[C@@H](N)Cc1ccc(O)cc1)C(=O)NCC(=O)NCC(=O)N[C@@H](Cc1ccccc1)C(=O)O` (H-YLGGF-OH) it was “inactive”.
The same measure, in the same setting: in the case of `C[C@H](NC(=O)[C@H](Cc1c[nH]cn1)NC(=O)CNC(=O)[C@@H](N)Cc1ccc(O)cc1)C(=O)N[C@@H](Cc1ccccc1)C(=O)O` (H-YGHAF-OH) it was “inactive”.
Regarding `C[C@H](NC(=O)CNC(=O)[C@@H](N)Cc1ccc(O)cc1)C(=O)N[C@@H](Cc1ccccc1)C(=O)N[C@@H](Cc1ccccc1)C(=O)O` (H-YGAFF-OH), the result was inactive.
The same measure, in the same setting: the entry for `NC(=O)CC[C@H](NC(=O)[C@H](Cc1ccccc1)NC(=O)[C@H](Cc1ccccc1)NC(=O)CNC(=O)[C@@H](N)Cc1ccc(O)cc1)C(=O)O` (H-YGFFQ-OH) is “inactive”.
The same measure, in the same setting: in the case of `CC(C)C[C@H](NC(=O)[C@H](Cc1ccccc1)NC(=O)CNC(=O)CNC(=O)[C@@H](N)Cc1ccc(O)cc1)C(=O)O` [ENKEPHALIN] it was “inactive”.
Consider `CSCC[C@H](NC(=O)[C@H](Cc1ccccc1)NC(=O)[C@H](C)NC(=O)CNC(=O)[C@@H](N)Cc1ccc(O)cc1)C(=O)O` (H-YGAFM-OH), for which the result was inactive.
Still for that read-out and setting: the entry for `CC(C)[C@H](NC(=O)CNC(=O)[C@@H](N)Cc1ccc(O)cc1)C(=O)N[C@@H](Cc1ccccc1)C(=O)N[C@@H](C)C(=O)O` (H-YGVFA-OH) is “inactive”; for `N[C@@H](Cc1ccc(O)cc1)C(=O)NCC(=O)N[C@@H](Cc1c[nH]c2ccccc12)C(=O)N[C@@H](Cc1ccccc1)C(=O)N[C@@H](Cc1c[nH]cn1)C(=O)O` (H-YGWFH-OH) it is “inactive”.
On the same count and under the same terms, the entry for `CC[C@H](C)[C@H](NC(=O)[C@H](Cc1ccccc1)NC(=O)CNC(=O)CNC(=O)[C@@H](N)Cc1ccc(O)cc1)C(=O)O` (H-YGGFI-OH) is “inactive”; for `CC(C)C[C@H](NC(=O)[C@H](C)NC(=O)CNC(=O)[C@@H](N)Cc1ccc(O)cc1)C(=O)N[C@H](C(=O)O)[C@@H](C)O` (H-YGALT-OH) it is “inactive”.
On the same count and under the same terms, in the case of `C[C@H](NC(=O)CNC(=O)[C@@H](N)Cc1ccc(O)cc1)C(=O)N[C@@H](Cc1c[nH]c2ccccc12)C(=O)N[C@@H](CC(=O)O)C(=O)O` (H-YGAWD-OH) it was “inactive”; in that of `CSCC[C@H](N)C(=O)N[C@@H](Cc1ccc(O)cc1)C(=O)NCC(=O)NCC(=O)N[C@@H](Cc1ccccc1)C(=O)O` (H-MYGGF-OH), “inactive”.
With `CSCC[C@H](NC(=O)[C@H](Cc1c[nH]c2ccccc12)NC(=O)[C@H](Cc1c[nH]c2ccccc12)NC(=O)CNC(=O)[C@@H](N)Cc1ccc(O)cc1)C(=O)O` (H-YGWWM-OH), the result was inactive.
Same read-out and setting: the entry for `NC(=O)CC[C@H](NC(=O)[C@@H](N)Cc1ccc(O)cc1)C(=O)NCC(=O)NCC(=O)N[C@@H](Cc1ccccc1)C(=O)O` (H-YQGGF-OH) is “inactive”; for `N[C@@H](Cc1ccc(O)cc1)C(=O)NCC(=O)NCC(=O)NCC(=O)N[C@@H](Cc1ccccc1)C(=O)O` (H-YGGGF-OH) it is “inactive”.
Still for that read-out and setting: in the case of `CC(C)C[C@H](NC(=O)CNC(=O)[C@@H](N)Cc1ccc(O)cc1)C(=O)NCC(=O)N[C@@H](Cc1ccccc1)C(=O)O` (H-YGLGF-OH) it was “inactive”; in that of `NC(=O)CC[C@H](NC(=O)[C@H](Cc1c[nH]c2ccccc12)NC(=O)[C@H](Cc1ccc(O)cc1)NC(=O)CNC(=O)[C@@H](N)Cc1ccc(O)cc1)C(=O)O` (H-YGYWQ-OH), “inactive”.
The same measure, in the same setting: in the case of `NC(=O)C[C@H](NC(=O)[C@H](Cc1ccccc1)NC(=O)[C@H](Cc1c[nH]c2ccccc12)NC(=O)CNC(=O)[C@@H](N)Cc1ccc(O)cc1)C(=O)O` (H-YGWFN-OH) it was “inactive”.
As to `CC(C)[C@H](NC(=O)[C@H](Cc1ccccc1)NC(=O)[C@H](CCC(N)=O)NC(=O)CNC(=O)[C@@H](N)Cc1ccc(O)cc1)C(=O)O` (H-YGQFV-OH), the result was inactive.
On the same count and under the same terms, in the case of `CC[C@H](C)[C@H](NC(=O)[C@H](Cc1ccccc1)NC(=O)[C@@H](NC(=O)CNC(=O)[C@@H](N)Cc1ccc(O)cc1)C(C)C)C(=O)O` (H-YGVFI-OH) it was “inactive”; in that of `CC(C)[C@H](NC(=O)CNC(=O)[C@@H](N)Cc1ccc(O)cc1)C(=O)N[C@@H](Cc1ccccc1)C(=O)N[C@@H](CCC(N)=O)C(=O)O` (H-YGVFQ-OH), “inactive”; in that of `NC(=O)C[C@H](N)C(=O)N[C@@H](Cc1ccc(O)cc1)C(=O)NCC(=O)NCC(=O)N[C@@H](Cc1ccccc1)C(=O)O` (H-NYGGF-OH), “inactive”.
Regarding `NC(=O)CC[C@H](NC(=O)[C@H](Cc1ccccc1)NC(=O)[C@H](Cc1c[nH]c2ccccc12)NC(=O)CNC(=O)[C@@H](N)Cc1ccc(O)cc1)C(=O)O` (H-YGWFQ-OH), the result was inactive.

(Values after ChEMBL document CHEMBL1150994, “The chemical synthesis of large random peptide libraries and their use for the discovery of ligands for macromolecular acceptors” (Bioorg Med Chem Lett, 1993).)
